In US9365857B2, “Xylose isomerase and xylitol dehydrogenase combination for xylose fermentation to ethanol and B. fragilis xylose isomerase” (Archer Daniels Midland Company, priority 2010, dated 2016):

Columns and labels:
[1] = molecular target: T1, B. fragilis xylose isomerase (SEQ. ID NO: 4) (Bacteroides fragilis, UniProt Q5LCV9); assay: xylitol inhibition of xylose isomerase activity (B. fragilis XI, SEQ. ID NO: 4); assay type: biochemical; conditions: 12.5 mM xylitol; percent of activity obtained in the absence of xylitol
T1 construct: ID NO: 4 in comparison to its E. coli orthologue
Protocol: (§1) Activity is reported as the percent of activity obtained in the absence of xylitol.
(§2) A distinguishing feature of the B. fragilis isomerases described herein is that enzymes are less inhibited by xylitol than orthologue XI sequences from other organism. […] ID NO: 4 in comparison to its E. coli orthologue. At 12.5 mM xylitol, the E. coli XI activity is >97% inhibited, in contrast to the B. fragilis XI, which retains at least 30% of its activity at the same xylitol concentration.

[2] = molecular target: E. coli xylose isomerase (Escherichia coli, UniProt P00944); assay: xylitol inhibition of xylose isomerase activity (E. coli XI); assay type: biochemical; conditions: read-out: E. coli XI activity inhibited
Protocol: as §1, §2

T1 sequence (Q5LCV9 whole entry, looked up, natural form): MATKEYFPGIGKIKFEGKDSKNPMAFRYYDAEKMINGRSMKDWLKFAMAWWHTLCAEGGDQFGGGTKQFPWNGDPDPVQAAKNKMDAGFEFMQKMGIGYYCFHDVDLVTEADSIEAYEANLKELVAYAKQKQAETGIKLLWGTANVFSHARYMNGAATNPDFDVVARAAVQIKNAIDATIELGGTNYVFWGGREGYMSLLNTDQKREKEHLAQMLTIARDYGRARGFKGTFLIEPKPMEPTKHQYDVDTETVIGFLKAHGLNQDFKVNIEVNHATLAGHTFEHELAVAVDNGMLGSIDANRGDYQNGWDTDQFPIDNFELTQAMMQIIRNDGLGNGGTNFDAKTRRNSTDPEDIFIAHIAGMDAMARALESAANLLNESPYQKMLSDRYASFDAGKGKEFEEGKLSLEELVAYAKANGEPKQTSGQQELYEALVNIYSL
Sequence of E. coli xylose isomerase (P00944 whole entry): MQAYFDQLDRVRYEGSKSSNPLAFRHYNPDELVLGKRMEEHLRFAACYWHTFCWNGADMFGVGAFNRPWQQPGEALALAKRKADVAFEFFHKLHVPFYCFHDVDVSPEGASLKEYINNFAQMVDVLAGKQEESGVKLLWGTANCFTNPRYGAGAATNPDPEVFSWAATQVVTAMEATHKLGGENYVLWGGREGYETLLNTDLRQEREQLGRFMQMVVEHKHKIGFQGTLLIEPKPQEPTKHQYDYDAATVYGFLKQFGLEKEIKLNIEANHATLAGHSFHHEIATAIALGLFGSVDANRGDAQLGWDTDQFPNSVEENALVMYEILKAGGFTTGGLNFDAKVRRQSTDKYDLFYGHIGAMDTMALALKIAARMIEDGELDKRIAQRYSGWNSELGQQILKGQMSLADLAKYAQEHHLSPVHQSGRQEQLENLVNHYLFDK

**Q.** What does the source list for `OC[C@@H](O)[C@H](O)[C@@H](O)CO` [xylitol]?
**A.** B. fragilis XI activity retained [1]: at least 30%; inhibition at 12500 µM [2]: > 97%
